In patent publication US20170027893A1, “THIOSEMICARBAZONES INHIBITORS OF LYSOPHOSPHATIDIC ACID ACYLTRANSFERASE AND USES THEREOF” (H. LEE CANCER CENTER AND RESEARCH INSTITUTE, INC., priority 2014, published 2017):

Legend:
LPAAT-β [1] = target: T1, LPAAT-β (Homo sapiens, UniProt O15120); experiment: DTNB (Ellman's reagent) 96-well plate screening assay of LPAAT-β enzymatic activity; assay type: biochemical; parameters: The assay utilizes full-length, recombinant, baculovirus-produced LPAAT-β; made in house
T1 sequence (O15120 24-278): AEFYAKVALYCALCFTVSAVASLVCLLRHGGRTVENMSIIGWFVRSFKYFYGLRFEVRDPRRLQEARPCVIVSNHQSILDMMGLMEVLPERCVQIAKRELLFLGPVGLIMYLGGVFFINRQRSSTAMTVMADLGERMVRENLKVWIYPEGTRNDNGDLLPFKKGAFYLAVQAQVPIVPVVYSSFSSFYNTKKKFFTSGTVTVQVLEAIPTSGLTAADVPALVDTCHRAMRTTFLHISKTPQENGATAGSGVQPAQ
Protocol: Screening with a modified screening assay in 96-well plate format for LPAAT-β enzymatic activity was performed as reported by Aguado and Campbell (Aguado et al., Characterization of a human lysophosphatidic acid acyltransferase that is encoded by a gene located in the class III region of the human major histocompatibility complex. J. Biol. Chem. 1998, 273, 4096-105).
The assay utilizes full-length, recombinant, baculovirus-produced LPAAT-β, which catalyzes the production of dioleoyl-[…] from the enzymatic substrates oleoyl-lysophosphatidic acid (LPA) and oleoyl-coenzyme A (Scheme 2). The ability of the compound to inhibit the LPAAT-β activity was assayed by the colorimetric measurement of the reaction of the free thiol group of the released coenzyme A with Ellman's reagent [5,5′-dithiobis-(2-nitrobenzoic acid) or DTNB] (Riener et al., Quick measurement of protein sulfhydryls with Ellman's reagent and with 4,4′-dithiodipyridine. Anal. Bioanal. Chem. 2002, 373, 266-76). […] A hit identified from the Life Chemicals library 6a (IC50 100 nM) was selected for further investigation.

LPAAT-β [2] = target: T1, LPAAT-β; experiment: secondary thin layer chromatography (TLC) assay measuring fluorescent PA; assay type: biochemical; parameters: The assay utilizes full-length, recombinant, baculovirus-produced LPAAT-β; made in house
[3] = read-out: IC50 (μM) (DTNB assay) (converted)
[4] = Table 4, read-out: IC50 (μm) (DTNB assay) (converted)

SMILES	IC50 (LPAAT-β [1]; [3]) [µM]	IC50 (LPAAT-β [2]) [µM]	other results
Cc1cccc(C=NNC(N)=S)c1O [Compound 6h]	7.5	> 10	
CCCCCCCc1cccc(C=NNC(N)=S)c1O [Compound 6q]	> 100	9.7	
CCCc1cccc(C=NNC(N)=S)c1O [Compound 6k]		19 ± 11	
CCOc1cccc(C=NNC(N)=S)c1O [Compound 6d]	> 100	> 10	LPAAT-β inhibitory activity in words (assay not given) (LPAAT-β [1]): inactive
NC(=S)NN=Cc1cccc(-c2ccccc2)c1O [Compound 6m]	40 ± 10	> 10	
CCCc1cccc(C=NNC(=S)NC(=O)c2ccccc2)c1O [Compound 10c]	> 100		LPAAT-β inhibitory activity in words (assay not given) (LPAAT-β [1]): inactive
NC(=S)NN=Cc1cccc(CCCc2ccccc2)c1O [Compound 6r]	> 100		
C=CCc1cccc(C=NNC(=S)NC)c1O [Compound 10a]	3.9 ± 2.3	> 10	
NC(=S)NN=Cc1cccc(Cl)c1O [Compound 6f]	2	> 10	
C=CCc1cc(-c2ccc(F)cc2)cc(C(C)=NNC(N)=S)c1O [Compound 19q]			IC50 (LPAAT-β [1]; [4]): 0.29 ± 0.06 µM; IC50 (LPAAT-β [2]; Table 4): 5.1 ± 3 µM
NC(=S)NN=Cc1cccc(O)c1O [Compound 6c]	> 100	> 10	LPAAT-β inhibitory activity in words (assay not given) (LPAAT-β [1]): inactive
NC(=S)NN=Cc1ccccc1O [Compound 6b]	> 100	> 100	LPAAT-β inhibitory activity in words (assay not given) (LPAAT-β [1]): inactive; LPAAT-β inhibitory activity in words (TLC assay) (LPAAT-β [2]): inactive
CCCCCc1cccc(C=NNC(N)=S)c1O [Compound 6p]	> 100	> 10	
NC(=S)NN=Cc1cccc(Br)c1O [Compound 6g]	1.5	> 10	
C=CCc1cc(C#N)cc(C(C)=NNC(N)=S)c1O [Compound 19d]			IC50 (LPAAT-β [1]; [4]): 0.46 µM; IC50 (LPAAT-β [2]; Table 4): > 10 µM
CCCc1cccc(C=NNC(=S)NC)c1O [Compound 10b]	14 ± 12	> 10	
C=CCc1cc(CCC)cc(C(C)=NNC(N)=S)c1O [Compound 19f]			IC50 (LPAAT-β [1]; [4]): 0.27 µM; IC50 (LPAAT-β [2]; Table 4): 2.4 µM
NC(=S)NN=Cc1cccc(F)c1O [Compound 6e]	4.3	> 10	
NC(=S)NN=Cc1cccc(C2CCCCC2)c1O [Compound 6n]	> 100	> 10	
C=CCc1cc(CC(=O)OC)cc(C(C)=NNC(N)=S)c1O [Compound 19m]			IC50 (LPAAT-β [1]; [4]): 1.15 µM
NC(=S)NN=Cc1cccc(C(F)(F)F)c1O [Compound 6i]	7	> 10	
NC(=S)N/N=C/c1cccc2c1oc1ccccc12 [Compound 6t]			LPAAT-β inhibitory activity in words (assay not given) (LPAAT-β [1]): inactive
C=CCc1cc(CC)cc(C(C)=NNC(N)=S)c1O [Compound 19e]			IC50 (LPAAT-β [1]; [4]): 0.2 µM; IC50 (LPAAT-β [2]; Table 4): 1.9 µM
C=CCc1cc(C(C)(C)C)cc(C(C)=NNC(N)=S)c1O [Compound 19i]			IC50 (LPAAT-β [1]; [4]): 0.31 µM; IC50 (LPAAT-β [2]; Table 4): 1.3 µM
CC(C)c1cccc(C=NNC(N)=S)c1O [Compound 6l]	13 ± 8.4	30	
NC(=S)N/N=C/c1ccc2ccccc2c1O [Compound 6s]	6.4 ± 4.7		
CCCCc1cccc(C=NNC(N)=S)c1O [Compound 6o]		> 10	
C=CCc1cccc(/C=N/NC(N)=O)c1O [Compound 6w]			LPAAT-β inhibitory activity in words (assay not given) (LPAAT-β [1]): inactive
NNC(N)=S [Thiosemicarbazide]			LPAAT-β inhibitory activity in words (assay not given) (LPAAT-β [1]): not by itself active

The next lines start with results.

IC50 (LPAAT-β [1]; [3]) [µM]	IC50 (LPAAT-β [2]) [µM]	SMILES	other results
17 ± 7.3	3.2 ± 1.6	C=CCc1cc(CCCCCC)cc(C(C)=NNC(N)=S)c1O [Compound 19k]	IC50 (LPAAT-β [1]; [4]): 0.24 µM; IC50 (LPAAT-β [2]; Table 4): 5.2 µM
0.27	> 10	CC(=NNC(N)=S)c1cc(Cl)cc(Cl)c1O [Compound 15f]	
> 100	> 10	CCCc1cccc(C=NN=c2scc(-c3ccccc3)n2C)c1O [Compound 11b]	LPAAT-β inhibitory activity in words (assay not given) (LPAAT-β [1]): inactive
0.36 ± 0.1		C=CCc1cc(-c2ccc(C#N)cc2)cc(C(C)=NNC(N)=S)c1O [Compound 19u]	IC50 (LPAAT-β [1]; [4]): 0.4 ± 0.19 µM; IC50 (LPAAT-β [2]; Table 4): 1 ± 0.9 µM
